Entries after “also recorded” stand apart in the source; their conditions may differ.
Key:
[1] = test system: immunomagnetically-selected CD3+ cells; experiment: Phototoxicity: cell survival by FACS (Annexin 5/7AAD) 18 hours after PD; format: cell-based; settings: 5.0×10^−8 M, 5 J/cm^2 light, FACS 18 hours after PD
Source text: (§1) Selective phototoxicity of Chalcogenorhodamine Photosensitizers. Based on the rapid extrusion kinetics and low potential for toxicity in resting cells, we selected four amide-containing half-julolidine analogues for further analysis (2-S—Cl, 2-Se—Cl, 4-S—Cl, and 4-Se—Cl). These photosensitizers are associated with high singlet oxygen quantum yields (Table I). As a result, very low concentrations of these agents are required for phototherapy. For all PD experiments, immunomagnetically-selected CD3^+ cells were suspended in a photosensitizer-rich media of 5.0×10^−8 M for 20 minutes followed by 30 minutes in a photosensitizer-free media. Cells were then exposed to 5 J/cm^2 of light followed by real-time measurement of OCR and ECAR. […] We next evaluated the effects of PD on cell survival. For these experiments, FACS analysis was performed 18 hours after PD. Cell survival was identified by failure to bind Annexin 5 and 7AAD, and percent survival was calculated as the difference in the absolute number of cells between PD and control (non-PD samples) samples.

[2] = Quantum yield for generation of singlet oxygen, time-resolved 1O2 phosphorescence; format: physicochemical; settings: air-saturated MeOH, TMR-Se as reference
resting T cells = experiment: Dark toxicity: bioenergetics (O2 consumption rate) of resting T cells; settings: 5.0×10^−7 M
[3] = test system: activated T cells (CD25+); experiment: PD of activated T cells after SEB stimulation: bioenergetics and survival; format: cell-based; settings: 5×10^−8 M, 5 J/cm^2
Description: To evaluate the differential effects of PD on bioenergetics of activated and resting T cells, immunomagnetically-selected CD25^+ and CD25^− T cells were isolated (>95% purity) after SEB stimulation. PD was then performed, and bioenergetics were measured within 1 hour. The percent of basal OCR devoted to ATP production was determined by comparing basal OCR to baseline OCR (after oligomycin injection). […] Upon exposure to light, the higher concentration of 2-Se—Cl selectively disrupted OXPHOS in activated T cells. To determine whether the selective impedance of basal ATP production affected cell survival, we performed FACS analysis 18 hours after PD (FIG. 5C).

PBMCs = format: cell-based; settings: SEB 50 ng/mL 72 hours, CFSE
[4] = n-octanol / PBS pH 7.4, shake flask
[5] = test system: immunomagnetically-selected CD3+ cells; experiment: Phototoxicity: photodepletion (PD) of CD3+ cells, real-time OCR; format: cell-based; settings: 5.0×10^−8 M 20 minutes, 30 minutes photosensitizer-free, 5 J/cm^2 light
Source text: as §1

HUT-78 cells = experiment: Cellular uptake and extrusion of photosensitizer (flow cytometry MFI); format: cell-based; settings: ±SE; for Uptake MFI: 2.5 × 10^−7 M photosensitizer, 20 minutes exposure; for % Extrusion: percent change in MFI after 18 hour extrusion period, 2.5 × 10^−7 M
Description: Cellular Uptake and Extrusion of Chalcogenorhodamine Photosensitizers. […] Cellular uptake of the chalcogenorhodamine photosensitizers was measured after a 20 minute exposure to 2.5×10^−7 M photosensitizer in malignant T cells (HUT-78 cells, Table 2). Transmembrane movement of the photosensitizers in the secretory direction (basolateral to apical) was measured after an 18-h extrusion period. As described above, the Se-containing molecules fluoresced at a lower intensity relative to the S-containing molecules. […] Overall, the PF6^− salts were more slowly extruded from cells relative to the chloride salts of the amide, with a greater difference in the extrusion kinetics noted between the thiorhodamine PF6 salts compared to the selenorhodamine chloride salts.

[6] = Fluorescence quantum yield in MeOH; format: physicochemical; settings: quantum yield for fluorescence in MeOH
MDCK-MDR1 cells = settings: cited from earlier work
P-gp = P-gp (Homo sapiens, UniProt P08183); settings: cited from earlier work
Sequence of P-gp (P08183 whole entry): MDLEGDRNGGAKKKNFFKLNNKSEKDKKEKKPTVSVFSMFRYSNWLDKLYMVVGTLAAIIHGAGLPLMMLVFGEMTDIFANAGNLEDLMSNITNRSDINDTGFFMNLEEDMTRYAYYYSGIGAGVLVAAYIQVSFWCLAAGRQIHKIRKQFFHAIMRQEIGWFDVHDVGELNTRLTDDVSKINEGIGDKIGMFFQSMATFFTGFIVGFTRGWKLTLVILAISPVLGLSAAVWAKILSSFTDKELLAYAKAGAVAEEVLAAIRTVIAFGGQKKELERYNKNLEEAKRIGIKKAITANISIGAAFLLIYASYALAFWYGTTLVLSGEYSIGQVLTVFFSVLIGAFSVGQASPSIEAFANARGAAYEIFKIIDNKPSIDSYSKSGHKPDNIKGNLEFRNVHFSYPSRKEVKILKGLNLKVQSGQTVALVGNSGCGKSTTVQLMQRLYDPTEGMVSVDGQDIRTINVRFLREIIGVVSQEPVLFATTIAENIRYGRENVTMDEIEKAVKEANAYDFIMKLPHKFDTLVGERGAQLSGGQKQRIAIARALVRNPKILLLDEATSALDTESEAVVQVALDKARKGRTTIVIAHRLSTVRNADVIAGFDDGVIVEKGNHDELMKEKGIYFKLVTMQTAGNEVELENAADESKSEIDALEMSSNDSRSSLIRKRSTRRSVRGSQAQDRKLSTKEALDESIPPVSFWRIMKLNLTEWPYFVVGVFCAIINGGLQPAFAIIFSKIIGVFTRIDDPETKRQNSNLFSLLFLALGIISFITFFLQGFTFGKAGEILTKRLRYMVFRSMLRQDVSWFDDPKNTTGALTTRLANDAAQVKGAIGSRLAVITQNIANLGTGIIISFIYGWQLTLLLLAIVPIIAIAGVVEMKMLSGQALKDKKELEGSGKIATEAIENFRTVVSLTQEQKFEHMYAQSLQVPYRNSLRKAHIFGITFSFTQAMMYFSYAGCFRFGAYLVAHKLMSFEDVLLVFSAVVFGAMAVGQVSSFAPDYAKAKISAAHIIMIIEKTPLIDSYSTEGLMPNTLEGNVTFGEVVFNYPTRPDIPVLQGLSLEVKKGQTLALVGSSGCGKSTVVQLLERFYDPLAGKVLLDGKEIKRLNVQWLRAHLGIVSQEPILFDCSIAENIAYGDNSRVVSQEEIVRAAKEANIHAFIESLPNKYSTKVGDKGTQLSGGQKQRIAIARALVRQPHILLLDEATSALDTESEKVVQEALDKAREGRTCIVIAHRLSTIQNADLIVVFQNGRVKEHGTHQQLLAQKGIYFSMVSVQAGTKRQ

cytochrome c oxidase = settings: whole cells, irradiation; cited from earlier work
physchem = settings: n-octanol/phosphate buffered saline, pH 7.4
[7] = reference value; cited from earlier work

CN1CCC(C)(C)c2cc3c(-c4ccc(C(=O)N5CCCCC5)s4)c4ccc(=[N+](C)C)cc-4[se]c3cc21.[Cl-] [2-Se—Cl, N-methyl-N-(1,4,4-trimethyl-6-(5-(piperidine-1-carbonyl)thiophen-2-yl)-3,4-dihydro-1H-selenochromeno[3,2-g]quinolin-9(2H)-ylidene)methanaminium Chloride]
cell death after PD [1]: minimal cell death
Φ(^1O2), MeOH [2]: 0.48±0.03
aerobic glycolysis after PD (resting T cells (CD25−)): not affecting aerobic glycolysis of either population
cell death in resting T cell population (resting T cells (CD25−)): minimal to no cell death
dark toxicity (resting T cells): not associated with any significant dark toxicity; also recorded: minimal toxicity
activated T cells eliminated from culture ([3]; FACS 18 hours after PD): Greater than 90%
aerobic glycolysis after PD ([3]; activated T cells): not affecting aerobic glycolysis of either population
OXPHOS associated ATP production after PD ([3]; activated T cells, within 1 hour): significantly impeded
response to TSST-1 after PD (PBMCs; challenge with TSST-1, 6 days): a robust response was observed
proliferation in response to SEB after PD (PBMCs; rechallenge with SEB, 6 days): no proliferation occurred
log P [4]: 2.23 ± 0.04
effect of PD on basal OCR [5]: did not significantly impede the basal OCR
Uptake MFI (HUT-78 cells): 6536
% Extrusion (HUT-78 cells): 92.17 (±1.09) %
ΦF, MeOH [6]: 0.009 ± 0.001

CCN(CC)C(=O)c1ccc(-c2c3ccc(N(C)C)cc3[s+]c3c4c5c(cc23)CCCN5CCC4)s1.F[P-](F)(F)(F)(F)F [8-S—PF6]
PBA (MDCK-MDR1 cells): 21 ×10⁻⁶ cm/s
effect on ATPase activity in P-gp (P-gp): stimulate ATPase activity
log P [4]: 1.4
Uptake MFI (HUT-78 cells): 128000
% Extrusion (HUT-78 cells): 79.40 (±1.56) %

CN(C)c1ccc2c(-c3ccccc3)c3ccc(=[N+](C)C)cc-3sc2c1.[Cl-] [TMR-S]
cytochrome c oxidase activity in irradiated treated cells (cytochrome c oxidase): light fluence-dependent inhibition of cytochrome c oxidase activity

CCN(CC)C(=O)c1ccc(-c2c3ccc(N(C)C)cc3[se+]c3c4c5c(cc23)CCCN5CCC4)s1.[Cl-] [8-Se—Cl, 12-(Dimethylamino)-2,3,6,7-tetrahydro-9-(5-(diethylcarbamoyl)-thiophen-2-yl)-1H,5H-selenoxantheno[2,3,4-ij]quinolizin-14-ium Chloride]
logP (physchem): 2.87 ± 0.01
melting point: 150 to 152 °C
Uptake MFI (HUT-78 cells): 19365
% Extrusion (HUT-78 cells): 83.05 (±1.78) %

CN(C)c1ccc2c(-c3ccccc3)c3ccc(=[N+](C)C)cc-3[se]c2c1.[Cl-] [TMR-Se]
Φ(^1O2) of reference [7]: 0.87
cytochrome c oxidase activity in irradiated treated cells (cytochrome c oxidase): light fluence-dependent inhibition of cytochrome c oxidase activity

CCN(CC)C(=O)c1ccc(-c2c3ccc(=[N+](C)C)cc-3[se]c3cc4c(cc23)C(C)(C)CCN4C)s1.[Cl-] [4-Se—Cl, N-(6-(5-(diethylcarbamoyl)thiophen-2-yl)-1,4,4-trimethyl-3,4-dihydro-1H-selenochromeno-[3,2-g]quinolin-9(2H)-ylidene)-N-methylmethanaminium Chloride]
cell death after PD [1]: minimal cell death
Φ(^1O2), MeOH [2]: 0.50 ± 0.03
log P [4]: 2.26 ± 0.04
effect of PD on basal OCR [5]: did not significantly impede the basal OCR
Uptake MFI (HUT-78 cells): 5209
% Extrusion (HUT-78 cells): 92.24 (±0.69) %
ΦF, MeOH [6]: 0.009 ± 0.001

Source: US20170096636A1, “METHODS AND COMPOUNDS FOR PHOTOTHERAPY WITH CHALCOGENORHODAMINE PHOTOSENSITIZERS” (Wake Forest University Health Sciences, priority 2014, published 2017)
